Patent publication US8178506B2, “Oligomeric compounds and compositions for use in modulation of small non-coding RNAs” (Regulus Therapeutics Inc., priority 2003, dated 2012)

Key:
[1] = system: A549 cells; test: Cell cycle assay in A549 cells; type: cell-based, human; conditions: A549 cells, 24 hours, relative to the untreated control cells in that phase
Description: In accordance with the present invention, certain oligomeric compounds targeting miRNAs were selected for dose response studies. Using the cell cycle assay described above, the cell cycle profiles of HeLa or A549 cells treated with varying concentrations of oligomeric compounds of the present invention were assessed.
Concomittent decreases in the percentage of cells in G1-phase of the cell cycle and increases in the percentage of hypodiploid (subG1) cells were also observed.
In a further study, A549 cells were treated with 25-, 50-, 100- or 150 nM of the oligomeric compounds ISIS Numbers 338637 (SEQ ID NO: 464) targeted against mir-96, and ISIS 338769 (SEQ ID NO: 596) targeted against mir-130b, ISIS 338836 (SEQ ID NO: 663) targeted against mir-23a, and ISIS 340350 (SEQ ID NO: 855) targeted against mir-95 (Mourelatos). Cells treated with increasing concentrations of oligomeric compounds were compared to untreated cells, to assess the dose-responsiveness of the observed delay or arrest. The random-mer ISIS 29848 was used as a negative control. Cells were prepared for flow cytometry 24-hours after oligonucleotide treatment. Results of these dose response studies are shown in Table 34, where data are expressed as percentage of cells in each phase relative to the untreated control cells in that phase.

[2] = system: mir-143 pri-miRNA; test: mir-143 pri-miRNA levels in differentiating adipocytes (real-time RT-PCR); type: cell-based, human; conditions: differentiated adipocytes 9 days vs 3 days post-differentiation
Description: Here, oligomeric compounds targeting mir-143 were transfected into preadipocytes which were then induced to differentiate, in order to assess the effects of these compounds on mir-143 pri-miRNA levels during differentiation. mir-143 pri-miRNA levels were assessed on days 3 and 9 after differentiation.
In addition to the uniform 2′-MOE phosphorothioate oligomeric compound ISIS Number 327901 (SEQ ID NO: 319) targeting mature mir-143, a 5-10-7 gapmer oligomeric compound, ISIS Number 340927 (SEQ ID NO: 319), was designed to target mature mir-143. […] ISIS 342672 and ISIS 342673 are uniform 2′-MOE phosphorothioate oligomeric compounds 22 nucleotides in length. ISIS Number 342677 (SEQ ID NO: 789) and ISIS Number 342678 (SEQ ID NO: 758) are the corresponding 5-10-7 scrambled 2′-MOE gapmer oligomeric compounds. All cytidine residues are 5-methylcytidines. […]
These compounds were transfected into differentiating adipocytes and their effects on levels of the mir-143 pri-miRNA molecule were assessed in pre-adipocytes vs. differentiated adipocytes, by real-time RT-PCR using the primer/probe set specific for the mir-143 pri-miRNA (forward primer=ISIS 339314, SEQ ID NO: 786; reverse primer=ISIS 342897, SEQ ID NO.: 787; probe=ISIS 342898, SEQ ID NO.: 788). […]

For “340350 (antisense TGCTCAATAAATACCCGTTGAA; all 2'-MOE, all phosphorothioate, methylation of C not given here) [compound 340350]”, the “% cells in cell cycle phase: G1” value ([1]; 25 nM) was 102%, the “% cells in cell cycle phase: G2/M” value ([1]; 25 nM) was 95% and the “% cells in cell cycle phase: S” value ([1]; 25 nM) was 100%. The “% cells in cell cycle phase: aneuploid” value ([1]; 25 nM) was 120%, the “% cells in cell cycle phase: subG1” value ([1]; 25 nM) was 91% and the “% cells in cell cycle phase: G1” value ([1]; 50 nM) was 128%. The “% cells in cell cycle phase: G2/M” value ([1]; 50 nM) was 126%, the “% cells in cell cycle phase: S” value ([1]; 50 nM) was 67% and the “% cells in cell cycle phase: aneuploid” value ([1]; 50 nM) was 80%. The “% cells in cell cycle phase: subG1” value ([1]; 50 nM) was 158%, the “% cells in cell cycle phase: G1” value ([1]; 100 nM) was 125% and the “% cells in cell cycle phase: G2/M” value ([1]; 100 nM) was 155%. The “% cells in cell cycle phase: S” value ([1]; 100 nM) was 60%, the “% cells in cell cycle phase: aneuploid” value ([1]; 100 nM) was 107% and the “% cells in cell cycle phase: subG1” value ([1]; 100 nM) was 267%. For the same substance, the “% cells in cell cycle phase: G1” value ([1]; 150 nM) was 128%, the “% cells in cell cycle phase: G2/M” value ([1]; 150 nM) was 211% and the “% cells in cell cycle phase: S” value ([1]; 150 nM) was 40%. The “% cells in cell cycle phase: aneuploid” value ([1]; 150 nM) was 108% and the “% cells in cell cycle phase: subG1” value ([1]; 150 nM) was 402%.
With “TGAGCTACAGTGCTTCATCTCA [ISIS 327901] (chemistry not given here) [uniform 2′-MOE PS; targets mir-143]” the “levels of the mir-143 pri-miRNA” value [2] was “approximately 4 fold”.
